# Experimental data taken from patent publication US12324447B2, “Animal feed compositions and uses thereof” (priority 2015, dated 2025).
# “Also recorded” adds a separate entry of the source. Like-named read-outs stand apart in the source and are kept apart here. Marks after values point to notes of the source that are not given here.
# B1: SEQ ID NO: 291: mature GH24 lysozyme from Trichophaea minuta (protein, listed as Trichophaea minuta)
# chain: YPAKVDLRCRSSPSTSASVVRTYSKGSEIQISCQTTGTSVEGSNVWDKTQHGCYVADYYVKTGHSGIFTTKCGSSSGGGSCKPPPINAATVALIKEFEGFVAKPAPDPIGLPTVGYGHLCKTKGCKEVPYSFPLTQTTATKLLQSDIKTFTSCVSNYVKDSVKLNDNQFGALSSWAFNVGCGNIQTSSLIKRLNAGENPNTVAAQELPKWKYAGGKVLPGLVRRRKAEVALFKKPSSVQAHPPKC
# modifications: mat_peptide (1)..(245)
# notes: mature GH24 lysozyme from Trichophaea minuta
# B2: SEQ ID NO: 294: mature GH24 lysozyme from Chaetomium sp. ZY287 (protein, listed as Chaetomium sp.)
# chain: YKISGSSVNCRSGPGTNYPVKKTYANGDEVTISCQTTGTNVEGNNIWDKTQHGCYVADKYVKTGKDGFVTKKCGSSGGGGGGKTCKAPKSNAATVDLIASFEGFRANIYTDATGHPTVGYGHMCTKSRCAEVKYKIPLSKADGKKLLADDMAKFEKCIKEMLNSKAKLNLNQYGALVSWSFNVGCGAAKGSQLVSRLNKGENPNTVLSNELPKWVHGNGKVLPGLVRRRNAEIALAKKSGSGAALPVKC
# modifications: mat_peptide (1)..(249)
# notes: mature GH24 lysozyme from Chaetomium sp; ZY287
# B3: SEQ ID NO: 297: mature GH24 lysozyme from Mortierella sp. ZY002 (protein, listed as Mortierella sp.)
# chain: YPITGADALHCRSGPGTSYPIQKTLRPPQDIKIQCQEPGTVVNGVSLWDKTQFGCYVSDYYVKTGTGNYVAPRCNSGGSSSACTGLNDAGINLIKEFEGFVPRPAPDPIGLPTVGYGHLCQTKGCGEVKYSFPLTTATATALLKDDLPKYTSCLAKALNGKPKLNKNQWAALASWTFNVGCGNMKSSSLITRLNAGQNPNTVATEELPKWKLAGGKVLPGLVRRRAAEVKLFKTANSSQGYPKCA
# modifications: mat_peptide (1)..(245)
# notes: mature GH24 lysozyme from Mortierella sp; ZY002
# B4: SEQ ID NO: 300: mature GH24 lysozyme from Metarhizium sp. XZ2431 (protein, listed as Metarhizium sp.)
# chain: YPVSADSLNCRAEPNTSSAIKTTYKKGEDVKISCQTEGPSINGNTIWDKTQDGCYVADYYVKTGSSGYVTGKCGGSSPPSGSGFCKTVNKAGLDLITKWEGFVSSPRGDPIGLPTVGYGHLCQKKGCAEVKYKFPLTKATALQLLNDDLPKYTGCLGKLLNSKVKLNDNQWAALTSWVFNVGCGNAQSSSLVRRLNNGENPNTVAPSELPKWKMAGGKVLEGLVKRRADEVRLFKVSSSKGAFPKCQ
# modifications: mat_peptide (1)..(247)
# notes: mature GH24 lysozyme from Metarhizium sp; XZ2431
# B5: SEQ ID NO: 270: mature GH24 catalytic domain from Trichophaea saccata with QCVG-linker (SEQ ID NO: 257 lacking the LED) (protein)
# chain: QCVGCKPPPINAATVALIKEFEGFVPKPAPDPIGLPTVGYGHLCKTKGCKEVPYSFPLTQETATKLLQSDIKTFTSCVSNYVKDSVKLNDNQYGALASWAFNVGCGNVQTSSLIKRLNAGENPNTVAAQELPKWKYAGGKVMPGLVRRRNAEVALFKKPSSVQAHPPKC
# B6: SEQ ID NO: 279: mature GH24 lysozyme from Acremonium alcalophilum, mature sequence of SEQ ID NO: 4 of WO 2013/076259; no LED (protein, listed as Acremonium alcalophilum)
# chain: QCVGPEVNSASINLIKEFEGWYPDIYVDPAGYPTVGYGHLCSDSSCSDVSYSIPLSEADGENLLRDDITNFQNCITWQTASSVVLNANQYGALVSWAFNVGCGASESSSLIARLNAGEDPNTVAEEELPRWNQGGGQVLPGLVRRRAAEVELHQIPTDVAALPACS
# modifications: mat_peptide (1)..(166)
# notes: no LED
# B7: SEQ ID NO: 269: amino acid sequence deduced from SEQ ID NO: 268: GH24 catalytic domain with QCVG-linker and signal peptide; precursor of SEQ ID NO: 270 (protein)
# chain: MAKVSTLTIALLTMASQARAQCVGCKPPPINAATVALIKEFEGFVPKPAPDPIGLPTVGYGHLCKTKGCKEVPYSFPLTQETATKLLQSDIKTFTSCVSNYVKDSVKLNDNQYGALASWAFNVGCGNVQTSSLIKRLNAGENPNTVAAQELPKWKYAGGKVMPGLVRRRNAEVALFKKPSSVQAHPPKC
# What was measured:
# [1] = In vivo broiler trial (growth performance)
# [2] = In vivo piglet trial (growth performance); set-up: species or system weaned piglets (Large-White x Redon); settings: for ADFI (g/d), Mean / ADWG (g/d), Mean / FCR, Mean: SEQ ID NO: 257 50 mg/kg feed, VevoVital 5000 mg/kg feed; for ADFI, % relative NC / ADWG, % relative NC / FCR, % relative NC: relative to negative control
# [3] = test system: Clostridium perfringens DSM756; type: cell-based; settings: for Diameter of clearing zone (mm): lysozymes 100 μg/ml, Bacitracin zinc salt 50 μg/ml; for Diameter of clearing zone (mm), bracketed with *: Incomplete inhibition of growth visible after MTT colouring: lysozyme 100 μg/ml; for Antimicrobial activity against Clostridium perfringens (in words): RDA
# [4] = test system: Micrococcus lysodeikticus ATTC No. 4698; assay: Lysozyme activity turbidity assay (optical density drop at 540 nm); settings: for Lysozyme activity against Micrococcus lysodeikticus (in words): OD drop assay
# [5] = test system: Exiguobacterium undea (DSM14481); assay: as above; type: biochemical, Exiguobacterium undae; settings: for Lysozyme activity against Exiguobacterium undea (in words): OD drop assay
# [6] = Finisher (d 36-42), SEQ ID NO: 257 25 mg/kg feed, Avilamycin 10 mg/kg
# [7] = Finisher (d 36-42), relative to unsupplemented control
# [8] = Grower (d 22-36), SEQ ID NO: 257 25 mg/kg feed, Avilamycin 10 mg/kg
# [9] = Grower (d 22-36), relative to unsupplemented control
# [10] = Starter (d 1-22), SEQ ID NO: 257 25 mg/kg feed, Avilamycin 10 mg/kg
# [11] = Starter (d 1-22), relative to unsupplemented control
# [12] = Whole period (day 1 to day 42), SEQ ID NO: 257 25 mg/kg feed, Avilamycin 10 mg/kg
# [13] = Whole period, relative to unsupplemented control
molecule,measurement,setting,value
"COC[C@H]1O[C@@H](OC2OC[C@@H]3O[C@]4(O[C@H]3[C@H]2OC(=O)C(C)C)O[C@H](C)[C@@](O)(C(C)=O)[C@@H]2OCO[C@H]24)[C@@H](OC)[C@@H](O)[C@@H]1O[C@@H]1O[C@H](C)[C@H](OC)[C@H](O[C@H]2C[C@@]3(C)OC4(C[C@@H](O)[C@H](O[C@H]5C[C@@H](O)[C@H](OC(=O)c6c(C)c(Cl)c(O)c(Cl)c6OC)[C@@H](C)O5)[C@@H](C)O4)O[C@@H]3[C@@H](C)O2)[C@H]1O (some centres unmarked) [Avilamycin, reference compound]",FCR,[1]; [6],1.982
same,Feed intake (g/b),[1]; [6],1460 g/b
same,Weight gain (g/b),[1]; [6],738 g/b
same,"FCR, Relative to C (%)",[1]; [7],101.1%
same,"Feed intake, Relative to C (%)",[1]; [7],98.2%
same,"Weight gain, Relative to C (%)",[1]; [7],97.0%
same,FCR,[1]; [8],1.683
same,Feed intake (g/b),[1]; [8],2242 g/b
same,Weight gain (g/b),[1]; [8],1334 g/b
same,"FCR, Relative to C (%)",[1]; [9],97.7%
same,"Feed intake, Relative to C (%)",[1]; [9],98.1%
same,"Weight gain, Relative to C (%)",[1]; [9],100.4%
same,FCR,[1]; [10],1.452
same,Feed intake (g/b),[1]; [10],1593 g/b
same,Weight gain (g/b),[1]; [10],1102 g/b
same,"FCR, Relative to C (%)",[1]; [11],100.8%
same,"Feed intake, Relative to C (%)",[1]; [11],101.0%
same,"Weight gain, Relative to C (%)",[1]; [11],100.6%
same,EPEF,[1]; [12],397
same,FCR,[1]; [12],1.669
same,Feed intake (g/b),[1]; [12],5312 g/b
same,Motality,[1]; [12],12.5
same,Weight gain (g/b),[1]; [12],3184 g/b
same,"EPEF, Relative to C (%)",[1]; [13],95.0%
same,"FCR, Relative to C (%)",[1]; [13],99.3%
same,"Feed intake, Relative to C (%)",[1]; [13],99.3%
same,"Weight gain, Relative to C (%)",[1]; [13],99.9%
same,EPEF worse by (compared to NC diet),"[1]; whole period, Avilamycin 10 mg/kg",5.0%
same,FCR improvement compared to NC diet,"[1]; whole period, GH24 lysozyme 25 mg/kg, Avilamycin 10 mg/kg",0.7%
"O=C(O)c1ccccc1 [VevoVital, benzoic acid]","ADFI (g/d), Mean",[2]; day 0-14,355 g/day
same,"ADWG (g/d), Mean",[2]; day 0-14,304 g/day
same,"FCR, Mean",[2]; day 0-14,1.168^a
same,"ADFI, % relative NC",[2]; day 0-14,98.6%
same,"ADWG, % relative NC",[2]; day 0-14,104.8%
same,"FCR, % relative NC",[2]; day 0-14,94.2%
same,"ADFI (g/d), Mean",[2]; day 0-42,709^ab g/d
same,"ADWG (g/d), Mean",[2]; day 0-42,526 g/day
same,"FCR, Mean",[2]; day 0-42,1.342^a
same,"ADFI, % relative NC",[2]; day 0-42,96.6%
same,"ADWG, % relative NC",[2]; day 0-42,105.4%
same,"FCR, % relative NC",[2]; day 0-42,90.4%
same,"ADFI (g/d), Mean",[2]; day 14-42,886^ab g/d
same,"ADWG (g/d), Mean",[2]; day 14-42,638 g/day
same,"FCR, Mean",[2]; day 14-42,1.398^a
same,"ADFI, % relative NC",[2]; day 14-42,95.3%
same,"ADWG, % relative NC",[2]; day 14-42,105.8%
same,"FCR, % relative NC",[2]; day 14-42,90.5%
same,Improvement on FCR compared to the negative control,"[2]; overall period (day 0 to day 42), lysozyme 50 mg/kg, VevoVital 5000 mg/kg",9.6%
same,Improvement of ADWG compared to NC,[2]; pre-starter period (days 0-14),4.8%
same,Improvement of ADWG compared to NC,[2]; starter period (days 14-42),5.8%
same,Improvement to FCR compared to NC,"[2]; starter period, from day 15 to day 42, SEQ ID NO: 257 50 mg/kg, VevoVital (PC)",9.5%
same,Improvement of ADWG compared to NC,[2]; whole period (day 0 to day 42),5.4%
Bacitracin zinc salt [reference compound],Diameter of clearing zone (mm),"[3]; Experiment 1, 1/2 MHB pH 6",11 mm
same,Diameter of clearing zone (mm),"[3]; Experiment 1, 1/10 MHB pH 7",22 mm
same,Diameter of clearing zone (mm),"[3]; Experiment 2, 1/10 MHB pH 7",18 mm
B1,Lysozyme activity against Micrococcus lysodeikticus (in words),[4],good activity
same,Lysozyme Activity against Micrococcus lysodeikticus as measured by Optical Density Drop,[4]; assay pH 6 (Table 14),++++
same,Lysozyme activity against Exiguobacterium undea (in words),[5],good activity
same,Lysozyme Activity against Exiguobacterium undae as measured by Optical Density Drop,[5]; assay pH 6 (Table 14),++++
B2,Lysozyme activity against Micrococcus lysodeikticus (in words),[4],good activity
same,Lysozyme Activity against Micrococcus lysodeikticus as measured by Optical Density Drop,[4]; assay pH 7 (Table 14),+++
same,Lysozyme activity against Exiguobacterium undea (in words),[5],good activity
same,Lysozyme Activity against Exiguobacterium undae as measured by Optical Density Drop,[5]; assay pH 7 (Table 14),+++
B3,Lysozyme activity against Micrococcus lysodeikticus (in words),[4],good activity
same,Lysozyme Activity against Micrococcus lysodeikticus as measured by Optical Density Drop,[4]; assay pH 6 (Table 14),++++
same,Lysozyme activity against Exiguobacterium undea (in words),[5],good activity
same,Lysozyme Activity against Exiguobacterium undae as measured by Optical Density Drop,[5]; assay pH 6 (Table 14),+++
B4,Lysozyme activity against Micrococcus lysodeikticus (in words),[4],good activity
same,Lysozyme Activity against Micrococcus lysodeikticus as measured by Optical Density Drop,[4]; assay pH 6 (Table 14),+++
same,Lysozyme activity against Exiguobacterium undea (in words),[5],good activity
same,Lysozyme Activity against Exiguobacterium undae as measured by Optical Density Drop,[5]; assay pH 6 (Table 14),+++
B5,Lysozyme activity against Micrococcus lysodeikticus (in words),[4],no lysozyme activity
same,Lysozyme Activity against Micrococcus lysodeikticus as measured by Optical Density Drop,[4]; assay pH 6,−
same,Diameter of clearing zone (mm),"[3]; Experiment 1, 1/2 MHB pH 6",0 mm
same,"Diameter of clearing zone (mm), bracketed with *: Incomplete inhibition of growth visible after MTT colouring","[3]; Experiment 1, 1/10 MHB pH 7",(8)* mm
same,"Diameter of clearing zone (mm), bracketed with *: Incomplete inhibition of growth visible after MTT colouring","[3]; Experiment 2, 1/10 MHB pH 7",(5)* mm
same,Antimicrobial activity against Clostridium perfringens (in words),"[3]; 50% MHB, pH 6",no activity
B6,Diameter of clearing zone (mm),"[3]; Experiment 1, 1/2 MHB pH 6",0 mm
same,Diameter of clearing zone (mm),"[3]; Experiment 1, 1/10 MHB pH 7",0 mm
same,Diameter of clearing zone (mm),"[3]; Experiment 2, 1/10 MHB pH 7",0 mm
same,Antimicrobial activity against Clostridium perfringens (in words),[3]; tested conditions (1/10 MHB pH 7 and 1/2 MHB pH 6),do not have any activity; also recorded: did not inhibit growth
B7,Antimicrobial activity against Clostridium perfringens (in words),"[3]; 1/10 MHB, pH 7",incomplete inhibition of growth
same,Antimicrobial activity against Clostridium perfringens (in words),"[3]; 50% MHB, pH 6",no inhibition of growth
